Where a name gives a salt, the structure may show the parent alone.
What was measured:
NK1 = NK1 (Homo sapiens, UniProt P25103); test: Signal transduction (ST), intracellular Ca++ (FLIPR), functional NK1 antagonistic activity; assay type: cell-based; details: antagonist, read-out: NK1 pIC50 (converted)
Summary of the method: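 Confluent cells were loaded with 2 μM Fluo3 for 1 h at 37° C, then washed into Krebs buffer pH 7.4 with 1.25 mM CaCl2 and 2.5 mM probenecid. Antagonists were preincubated 20 min at RT before agonist addition. Peak Ca++ transients were read by FLIPR, with EC50 or IC50 from sigmoidal non-linear regression.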

NK2 = target: T1, NK2 (Homo sapiens, UniProt P21452); test: Signal transduction (ST), intracellular Ca++ (FLIPR), NK2; assay type: cell-based; details: antagonist, read-out: NK2 pIC50 (converted)
T1 sequence (P21452 1-398): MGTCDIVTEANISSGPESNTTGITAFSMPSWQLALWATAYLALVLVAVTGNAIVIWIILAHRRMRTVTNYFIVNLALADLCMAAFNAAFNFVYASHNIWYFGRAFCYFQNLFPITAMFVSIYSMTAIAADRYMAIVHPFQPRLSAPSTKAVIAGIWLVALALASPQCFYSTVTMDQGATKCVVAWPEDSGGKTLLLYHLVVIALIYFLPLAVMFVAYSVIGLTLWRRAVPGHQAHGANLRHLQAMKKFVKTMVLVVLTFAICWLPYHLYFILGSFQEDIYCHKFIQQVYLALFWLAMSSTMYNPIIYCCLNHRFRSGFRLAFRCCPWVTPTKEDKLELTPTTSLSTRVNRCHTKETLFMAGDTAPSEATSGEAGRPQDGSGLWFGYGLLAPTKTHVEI

NK3 = target: T2, NK3 (Homo sapiens, UniProt P29371); test: Signal transduction (ST), intracellular Ca++ (FLIPR), NK3; assay type: cell-based; details: antagonist, read-out: NK3 pIC50 (converted)
T2 sequence (P29371 1-465): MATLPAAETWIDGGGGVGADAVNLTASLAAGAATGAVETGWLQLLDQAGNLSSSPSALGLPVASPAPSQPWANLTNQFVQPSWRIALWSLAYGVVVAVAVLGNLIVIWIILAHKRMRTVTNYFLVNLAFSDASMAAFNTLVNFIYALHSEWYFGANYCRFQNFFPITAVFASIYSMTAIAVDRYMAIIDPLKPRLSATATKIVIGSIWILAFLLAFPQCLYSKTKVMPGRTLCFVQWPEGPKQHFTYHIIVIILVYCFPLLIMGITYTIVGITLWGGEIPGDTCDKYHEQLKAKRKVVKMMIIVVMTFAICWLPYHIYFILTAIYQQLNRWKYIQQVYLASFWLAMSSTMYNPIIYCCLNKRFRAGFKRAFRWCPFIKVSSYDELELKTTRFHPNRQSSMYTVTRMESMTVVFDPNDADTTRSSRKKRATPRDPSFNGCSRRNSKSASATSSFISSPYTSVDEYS

NK1, sequence (P25103 whole entry): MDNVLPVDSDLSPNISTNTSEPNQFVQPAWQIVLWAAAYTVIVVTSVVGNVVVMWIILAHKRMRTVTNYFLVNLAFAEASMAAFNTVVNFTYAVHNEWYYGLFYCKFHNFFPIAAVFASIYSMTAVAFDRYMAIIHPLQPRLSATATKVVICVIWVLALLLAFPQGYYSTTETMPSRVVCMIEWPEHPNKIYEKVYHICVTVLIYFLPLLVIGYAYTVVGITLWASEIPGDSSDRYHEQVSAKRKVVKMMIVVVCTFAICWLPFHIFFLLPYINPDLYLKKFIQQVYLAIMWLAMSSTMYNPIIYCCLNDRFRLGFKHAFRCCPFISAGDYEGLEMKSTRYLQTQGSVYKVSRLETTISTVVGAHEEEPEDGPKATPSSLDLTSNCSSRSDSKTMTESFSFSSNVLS

Compound	melting point [°C]	IC50 (NK1) [µM]	IC50 (NK2) [µM]	IC50 (NK3) [µM]
O=C(c1cc(C(F)(F)F)cc(C(F)(F)F)c1)N1CCC(N2CCC3(CCN(Cc4ccccc4)CC3)CC2)CC1Cc1ccccc1 (stereo not shown) (as salt: hydrochloric acid salt) [Compound 5]	183			
CC(C)(C)OC(=O)N1CCC2(CC1)CCN(C1CCN(C(=O)c3cc(C(F)(F)F)cc(C(F)(F)F)c3)C(Cc3ccc(Cl)c(Cl)c3)C1)CC2 (stereo not shown) [Compound 130]	80			
O=C(C1CC1)N1CCC2(CC1)CCN(C1CCN(C(=O)c3cc(C(F)(F)F)cc(C(F)(F)F)c3)C(Cc3ccccc3)C1)CC2 (stereo not shown) [Compound 3]	160	0.0372	1.1	1.51
O=C(C=Cc1ccco1)N1CCC2(CC1)CCN([C@H]1CCN(C(=O)c3cc(C(F)(F)F)cc(C(F)(F)F)c3)[C@H](Cc3ccccc3)C1)CC2 [Compound 84]		0.282	7.24	> 10
O=C(C1CCOC1)N1CCC2(CC1)CCN([C@H]1CCN(C(=O)c3cc(C(F)(F)F)cc(C(F)(F)F)c3)[C@H](Cc3ccc(Cl)c(Cl)c3)C1)CC2 (stereo partly shown) [Compound 132]		0.00955	1.7	0.912
O=C(Cc1ccsc1)N1CCC2(CC1)CCN([C@H]1CCN(C(=O)c3cc(C(F)(F)F)cc(C(F)(F)F)c3)[C@H](Cc3ccccc3)C1)CC2 [Compound 76]		0.0257	1.15	3.98
O=C(c1cc(C(F)(F)F)cc(C(F)(F)F)c1)N1CCC(N2CCC3(CC2)CCN(S(=O)(=O)c2cccs2)CC3)CC1Cc1ccccc1 (stereo not shown) [Compound 92]		0.017	1.32	0.339
CC1CCCCC1C(=O)N1CCC2(CC1)CCN([C@@H]1CCN(C(=O)c3cc(C(F)(F)F)cc(C(F)(F)F)c3)[C@H](Cc3ccccc3)C1)CC2 (stereo partly shown) [Compound 39]		0.0851	4.79	5.37
CC(C)(C)C(=O)N1CCC2(CC1)CCN([C@@H]1CCN(C(=O)c3cc(C(F)(F)F)cc(C(F)(F)F)c3)[C@H](Cc3ccccc3)C1)CC2 [Compound 8]		0.0437	2.82	4.47
O=C(c1cc(C(F)(F)F)cc(C(F)(F)F)c1)N1CCC(N2CCC3(CC2)CCN(C(CO)c2cccs2)CC3)CC1Cc1ccccc1 (stereo not shown) [Compound 6]		0.129	7.76	> 10
Cc1nc(S(=O)(=O)N2CCC3(CCN([C@H]4CCN(C(=O)c5cc(C(F)(F)F)cc(C(F)(F)F)c5)[C@H](Cc5ccccc5)C4)CC3)CC2)cn1C [Compound 100]		0.012	1.26	0.331
O=C(CN1CCOC1=O)N1CCC2(CC1)CCN([C@H]1CCN(C(=O)c3cc(C(F)(F)F)cc(C(F)(F)F)c3)[C@H](Cc3ccccc3)C1)CC2 [Compound 79]		0.17	> 10	> 10
O=C(c1cc(C(F)(F)F)cc(C(F)(F)F)c1)N1CC[C@H](N2CCC3(CC2)CCN(S(=O)(=O)c2ccccc2)CC3)C[C@H]1Cc1ccccc1 [Compound 102]		0.0617	> 10	0.708
O=C(c1cc(C(F)(F)F)cc(C(F)(F)F)c1)N1CC[C@H](N2CCC3(CC2)CCN(S(=O)(=O)c2ccc(C(F)(F)F)cc2)CC3)C[C@H]1Cc1ccccc1 [Compound 117]		0.447	> 10	> 10
O=C1CC2(CCN1Cc1ccccc1F)CCN([C@H]1CCN(C(=O)c3cc(C(F)(F)F)cc(C(F)(F)F)c3)[C@H](Cc3ccccc3)C1)CC2 [Compound 202]		0.245	4.57	7.24
CC12CCC(C(=O)N3CCC4(CC3)CCN([C@H]3CCN(C(=O)c5cc(C(F)(F)F)cc(C(F)(F)F)c5)[C@H](Cc5ccccc5)C3)CC4)(OC1=O)C2(C)C (stereo partly shown) [Compound 61]		0.263	> 10	> 10
CC(C)(C)OC(=O)N1CCCC1C(=O)N1CCC2(CCN(C[C@H]3CCN(C(=O)c4cc(C(F)(F)F)cc(C(F)(F)F)c4)[C@H](Cc4ccccc4)C3)CC2)CC1 (stereo partly shown) [Compound 181]		0.0339	7.08	> 10

Compound	melting point [°C]	IC50 (NK1) [µM]	IC50 (NK2) [µM]	IC50 (NK3) [µM]
O=C(CC12CC3CC(CC(C3)C1)C2)N1CCC2(CC1)CCN([C@H]1CCN(C(=O)c3cc(C(F)(F)F)cc(C(F)(F)F)c3)[C@H](Cc3ccccc3)C1)CC2 [Compound 72]		0.324	> 10	> 10
Cc1ccoc1C(=O)N1CCC2(CC1)CCN([C@H]1CCN(C(=O)c3cc(C(F)(F)F)cc(C(F)(F)F)c3)[C@H](Cc3ccccc3)C1)CC2 [Compound 25]		0.0832	3.98	> 10
O=C(c1cc(C(F)(F)F)cc(C(F)(F)F)c1)N1CC[C@H](N2CCC3(CC2)CCN(S(=O)(=O)c2ccc(Br)s2)CC3)C[C@H]1Cc1ccccc1 [Compound 95]		0.269	1.91	2.34
O=C(c1cc(C(F)(F)F)cc(C(F)(F)F)c1)N1CCC(N2CCC3(CC2)CCN(S(=O)(=O)c2cccs2)CC3)CC1Cc1ccccc1 (stereo not shown) (as salt: oxalate) [Compound 92]	132			
O=C(c1ccoc1)N1CCC2(CC1)CCN([C@H]1CCN(C(=O)c3cc(C(F)(F)F)cc(C(F)(F)F)c3)[C@H](Cc3ccc(F)c(F)c3)C1)CC2 [Compound 140]		0.0234	3.47	2.45
Cc1noc(C)c1CN1CCC2(CCN([C@H]3CCN(C(=O)c4cc(C(F)(F)F)cc(C(F)(F)F)c4)[C@H](Cc4ccccc4)C3)CC2)CC1=O [Compound 200]		0.0234	1.45	6.92
CC1(C)C(C(=O)N2CCC3(CC2)CCN([C@H]2CCN(C(=O)c4cc(C(F)(F)F)cc(C(F)(F)F)c4)[C@H](Cc4ccccc4)C2)CC3)C1(C)C [Compound 16]		0.191	> 10	8.51
O=C(C1CC1)N1CCC2(CCN(C[C@H]3CCN(C(=O)c4cc(C(F)(F)F)cc(C(F)(F)F)c4)[C@H](Cc4ccccc4)C3)CC2)CC1 [Compound 179]		0.0589	> 10	> 10
O=C(Cc1ccc2c(c1)OCO2)N1CCC2(CC1)CCN([C@H]1CCN(C(=O)c3cc(C(F)(F)F)cc(C(F)(F)F)c3)[C@H](Cc3ccccc3)C1)CC2 [Compound 81]		0.115	5.25	> 10
C/C(=C\C(=O)N1CCC2(CC1)CCN([C@H]1CCN(C(=O)c3cc(C(F)(F)F)cc(C(F)(F)F)c3)[C@H](Cc3ccccc3)C1)CC2)C(F)(F)F [Compound 86]		0.129	> 10	> 10
O=C(c1cc(C(F)(F)F)cc(C(F)(F)F)c1)N1CC[C@H](N2CCC3(CC2)CCN(S(=O)(=O)C(F)(F)F)CC3)C[C@H]1Cc1ccccc1 [Compound 91]		0.0871	1.38	4.37
O=C(NCC(=O)N1CCC2(CC1)CCN([C@H]1CCN(C(=O)c3cc(C(F)(F)F)cc(C(F)(F)F)c3)[C@H](Cc3ccccc3)C1)CC2)c1ccco1 [Compound 73]		0.0331	> 10	> 10
O=C(C1=CCCCC1)N1CCC2(CC1)CCN([C@H]1CCN(C(=O)c3cc(C(F)(F)F)cc(C(F)(F)F)c3)[C@H](Cc3ccccc3)C1)CC2 [Compound 41]		0.148	8.51	> 10
CS(=O)(=O)c1ccccc1S(=O)(=O)N1CCC2(CCN([C@H]3CCN(C(=O)c4cc(C(F)(F)F)cc(C(F)(F)F)c4)[C@H](Cc4ccccc4)C3)CC2)CC1 [Compound 125]		0.158	5.13	6.92
O=C(c1ccc[nH]c1=O)N1CCC2(CC1)CCN([C@H]1CCN(C(=O)c3cc(C(F)(F)F)cc(C(F)(F)F)c3)[C@H](Cc3ccccc3)C1)CC2 [Compound 55]		0.158	3.98	> 10
O=C(C1CCOC1)N1CCCC2(CCCN(C3CCN(C(=O)c4cc(C(F)(F)F)cc(C(F)(F)F)c4)C(Cc4ccccc4)C3)C2)C1 (single isomer, unassigned) [Compound 210]		0.288	1.82	1.78
